Reference: patent publication US10851097B2, “4,5,6,7-tetrahydro-1H-imidazo[4,5-c]pyridine and 1,4,5,6,7,8-hexahydroimidazo[4,5-d]azepine derivatives as janus kinase inhibitors” (Topivert Pharma Limited, priority 2015, dated 2020)
In brackets after ≈: the same amount, converted by molar mass. Where two headings read alike, the source gives them in different places.

Columns and labels:
Jurkat cells = experiment: Cell cytotoxicity assay in Jurkat cells (assay (c)); assay type: cell-based, human; conditions: 24 h, propidium iodide, normalised to DMSO control
Experimental: (c) Cell Cytotoxicity Assay
1×10^5 Jurkat cells (immortalised human T lymphocytes) are added to the appropriate number of wells of a 96 well plate in 100 μL of media (RPMI supplemented with 10% foetal bovine serum). 1 μL of DMSO control (final concentration 1.0% v/v) or test compound (final concentration 20, 5 or 1 μg/mL) is added to the wells and incubated at 37° C., 5% CO2. After 24 hours, the plate is centrifuged at 1200 rpm for 3 minutes and the supernatant discarded. Cells are then resuspended in 150 μL (final concentration 7.5 μg/mL) of propidium iodide (PI) in PBS and incubated at 37° C., 5% CO2 for 15 minutes. After 15 minutes, cells are analysed by flow cytometry (BD accuri) using the FL3 window. The % viability is calculated as the % of cells that are PI negative in the test wells normalised to the DMSO control.

[1] = Systemic pharmacokinetics and total colon tissue distribution after single oral administration in mice; assay type: in vivo, male C57BL/6 mice; conditions: for Kp: total colon tissue / plasma, po, 10 mg/kg
Experimental: Studies were conducted by Sai Life Sciences (Hinjewadi, Pune, India) to investigate the systemic pharmacokinetics and total colon tissue distribution of compounds of the invention following a single oral administration in male C57BL/6 mice.
A group of twenty four male mice were administered with a solution of test compound formulated at a dose of 10 mg/10 mL/kg in aqueous hydroxypropyl-β-cyclodextrin (20% w/v in water). Blood samples (approximately 60 μL) were collected from retro-orbital plexus of each mouse under light isoflurane anaesthesia such that the samples were obtained at 0.5, 1, 2, 4, 6, 8, 12 and 24 hr. The blood samples were collected from a set of three mice at each time point in a labeled micro centrifuge tube containing K2EDTA as anticoagulant. Plasma samples were separated by centrifugation at 4000 rpm for 10 min and stored below −70° C. until bioanalysis. After collection of blood sample, animals were humanely euthanized by carbon dioxide asphyxiation to collect total colon tissues. The colons were flushed with cold PBS (pH7.4) to remove contents. The total colon tissues were homogenized with cold PBS (pH7.4) of twice the weight of colon tissue and stored below −70° C. Total volume was three times the total colon tissue weights. All samples were processed for analysis by protein precipitation using acetonitrile and analyzed with a fit-for-purpose LC-MS/MS method. Pharmacokinetic parameters were calculated using the non-compartmental analysis tool of Phoenix WinNonlin® (Version 6.3).

[2] = Solubility in fasted-state simulated colonic fluid (FaSSCoF) at pH 6.5; assay type: physicochemical; conditions: 25 °C, pH 6.5, fassgf or other biorelevant, thermodynamic from solid, pH 6.5, 25° C., Run 1, read-out: pH 6.5 FaSSCoF Solubility Run 1
Experimental: The solubilities of compounds of the invention in FaSSCoF at pH 6.5 are determined using a modification of a previously-reported procedure (Vertzoni, M., et al. Pharm. Res. 2010, 27, 2187-2196). In place of the bile salt extract employed in the original procedure (which extract is no longer available), the modified procedure uses a mixture of sodium taurochlorate (0.15 g), glycocholic acid (0.15 g), ursodeoxycholic acid (0.05 g), cholic acid (0.05 g), and glycodeoxycholic acid (0.05 g). These five bile acids are ground together with a mortar and pestle to produce a fine white powder that is incorporated into the FaSSCoF, as outlined below.
Tris(hydroxymethyl)aminomethane (Tris; 0.275 g) and maleic acid (0.44 g) are dissolved in water (35 mL) to give a solution whose pH is adjusted to 6.5 by treatment with 0.5M NaOH (ca. 12 mL). The solution is then made up to 50 mL with water. A portion of this Tris/maleate buffer solution (ca. 25 mL) is added to a 0.5 L round-bottomed flask, before being treated with 0.00565 g of the bile acid mixture described above. Solutions of phosphatidylcholine (0.0111 g) in DCM (0.15 mL) and palmitic acid (0.0013 g) in DCM (0.15 mL) are added, then the organic solvent is evaporated off under reduced pressure at 40° C. until a clear solution, with no perceptible DCM odour, is achieved. The volume of the evaporated solution is adjusted to 50 mL by addition of the remainder of Tris/maleate buffer, then BSA (0.115 g) is added, before being dissolved by gentle agitation.
Test compounds are suspended in the pH 6.5 FaSSCoF medium to give a maximum final concentration of 2-10 mg/mL. The suspensions are equilibrated at 25° C. for 24 h, before being filtered through a glass fibre C filter. The filtrates are then diluted as appropriate for injection and quantification by HPLC with reference to a standard. Different volumes of the standard, diluted and undiluted sample solutions are injected and the solubilities are calculated using the peak areas determined by integration of the peak found at the same retention time as the principal peak in the standard injection.

TYK2 = target: T1, TYK2 (Homo sapiens, UniProt P29597); experiment: KINOMEscan enzyme binding assay (DiscoveRx), TYK2; conditions: read-out: Dissociation Constant TYK2
T1 construct: purchased DiscoveRx (LeadHunter Discover Services, KINOMEscan)
T1 sequence (P29597 888-1187 limits assumed): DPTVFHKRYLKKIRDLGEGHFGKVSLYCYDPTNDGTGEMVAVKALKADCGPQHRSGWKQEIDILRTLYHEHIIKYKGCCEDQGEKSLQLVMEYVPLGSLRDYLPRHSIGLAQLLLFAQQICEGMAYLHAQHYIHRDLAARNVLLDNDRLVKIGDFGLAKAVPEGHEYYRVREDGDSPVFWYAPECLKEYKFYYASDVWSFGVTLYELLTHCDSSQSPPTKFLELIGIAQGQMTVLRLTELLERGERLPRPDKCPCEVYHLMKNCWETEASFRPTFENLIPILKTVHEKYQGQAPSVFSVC
Experimental: (§1) These assays may be conducted by DiscoveRx (formerly Ambit; San Diego, Calif.). The percentage inhibition produced by incubation with a test compound may be calculated relative to the non-inhibited control.

JAK3 = target: T2, JAK3 (Homo sapiens, UniProt P52333); experiment: KINOMEscan enzyme binding assay (DiscoveRx), JAK3; conditions: read-out: Dissociation Constant JAK3
T2 construct: purchased DiscoveRx (LeadHunter Discover Services, KINOMEscan)
Experimental: as §1

JAK2 = target: T3, JAK2 (Homo sapiens, UniProt O60674); experiment: KINOMEscan enzyme binding assay (DiscoveRx), JAK2; conditions: read-out: Dissociation Constant JAK2
T3 construct: purchased DiscoveRx (LeadHunter Discover Services, KINOMEscan)
Experimental: as §1

[3] = male, C57BL/6, mouse, oral 10 mg/kg, plasma, read-out: Mean plasma concentration
[4] = male, C57BL/6, mouse, total colon tissue, oral 10 mg/kg, total colon, read-out: Total colon level

T2 sequence (P52333 813-1124 limits assumed): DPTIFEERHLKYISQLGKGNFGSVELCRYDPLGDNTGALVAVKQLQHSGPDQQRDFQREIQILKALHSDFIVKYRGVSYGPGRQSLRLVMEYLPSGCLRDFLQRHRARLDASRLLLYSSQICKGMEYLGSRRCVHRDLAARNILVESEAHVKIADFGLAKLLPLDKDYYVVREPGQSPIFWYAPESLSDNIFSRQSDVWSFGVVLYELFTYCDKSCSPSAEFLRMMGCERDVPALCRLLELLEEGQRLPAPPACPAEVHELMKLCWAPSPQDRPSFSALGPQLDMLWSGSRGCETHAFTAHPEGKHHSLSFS
T3 sequence (O60674 840-1132 limits assumed): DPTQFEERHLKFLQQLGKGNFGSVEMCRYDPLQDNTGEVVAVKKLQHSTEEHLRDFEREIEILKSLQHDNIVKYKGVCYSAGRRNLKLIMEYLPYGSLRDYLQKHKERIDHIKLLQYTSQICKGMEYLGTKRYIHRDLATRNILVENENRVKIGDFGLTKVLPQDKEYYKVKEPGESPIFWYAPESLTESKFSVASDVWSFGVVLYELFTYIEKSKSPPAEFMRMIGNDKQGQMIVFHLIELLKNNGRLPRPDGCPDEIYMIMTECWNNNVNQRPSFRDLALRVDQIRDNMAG

concentration at 0.5 h [1, 3]: 2.4 ng/mL
concentration at 1 h [1, 3]: 2.6 ng/mL
concentration at 2 h [1, 3]: 1.9 ng/mL
concentration at 4 h [1, 3]: 1.1 ng/mL
concentration at 6 h [1, 3]: 3.4 ng/mL
concentration at 8 h [1, 3]: 4.8 ng/mL
concentration at 12 h [1, 3]: 1.2 ng/mL
concentration at 24 h [1, 3]: 0 ng/mL
AUC(0-t) ([1]; male, C57BL/6, mouse, oral 10 mg/kg, plasma, read-out: AUC0-24 h P (plasma)): 20 ng·h/mL
Cmax ([1]; male, C57BL/6, mouse, oral 10 mg/kg, plasma, read-out: Cmax P (plasma)): 4.8 ng/mL
Kp ([1]; male, C57BL/6, mouse, read-out: AUC0-24 h ratio (total colon to plasma)): 4850
Kp ([1]; male, C57BL/6, mouse, read-out: Cmax ratio (total colon to plasma)): 3170
concentration at 0.5 h [1, 4]: 431 ng/g
concentration at 1 h [1, 4]: 1160 ng/g
concentration at 2 h [1, 4]: 5450 ng/g
concentration at 4 h [1, 4]: 7230 ng/g
concentration at 6 h [1, 4]: 4820 ng/g
concentration at 8 h [1, 4]: 15200 ng/g
concentration at 12 h [1, 4]: 2220 ng/g
concentration at 24 h [1, 4]: 44.8 ng/g
Cmax ([1]; male, C57BL/6, mouse, total colon tissue, oral 10 mg/kg, total colon, read-out: Cmax C (total colon)): 15200 ng/g
Systemic plasma exposure following oral administration ([1]; oral 10 mg/kg, plasma, in words): very low
AUC0-24 h C (total colon) ([1]; oral 10 mg/kg, total colon): 97,062 h · ng/g
Colonic concentrations following oral administration ([1]; oral 10 mg/kg, total colon, in words): substantial colonic concentrations
solubility thermodynamic at 24 h [2]: 10 µg/mL (≈ 16 µM)
Kd (TYK2): 130 pM
Kd (JAK3): 92 pM
Kd (JAK2): 47 pM
SMILES: CCc1cc(O)c(F)cc1-c1ccc2c(-c3nc4c([nH]3)CCN(C(=O)c3cnc(N(C)CCN5CCCC5=O)cn3)C4)n[nH]c2c1 [Example 2(k), 1-(2-((5-(2-(6-(2-ethyl-5-fluoro-4-hydroxyphenyl)-1H-indazol-3-yl)-4,5,6,7-tetrahydro-1H-imidazo[4,5-c]pyridine-5-carbonyl)pyrazin-2-yl)(methyl)amino)ethyl)pyrrolidin-2-one]
% viability at 1 μg/mL (Jurkat cells): 93%
